{"source": "patent US20120058204A1", "about": "“USE OF OVER EXPRESSION OF CYSTATHIONINE GAMMA LYASE AS A PROGNOSTIC, DIAGNOSTIC AND THERAPEUTIC TARGET FOR CANCER” (NATIONAL CANCER CENTER RESEARCH INSTITUTE, priority 2010, published 2012)", "assay_type_in_all_cases": "cell-based", "key": {"OVCAR3 cell line": {"test_system": "OVCAR3 cell line", "assay": "Drug and growth-inhibitor assay (Cell Titer-Glo cell viability), OVCAR3", "conditions": "concentration 0.1 g/ml to […], alone", "description": "(§1) Cysplatin (CDDP, Randa, molecular weight, 300.5 Da) was purchased from Nippon Kayaku (Tokyo, Japan). Propargylglycine (PPG, molecular weight, 113.11 Da), a specific inhibitor of CTH, was purchased from Sigma-Aldrich. OVISE, OVTOKO, and OVCAR-3 were seeded into opaque-walled 96-well plates in a concentration of 1×10^4 cells/well on the day before adding the drugs. CDDP solution of various concentrations (0, 0.02, 0.1, 0.5, 2.5, and 12.5 µg/ml) was then added to the wells in duplicate. In the following, PPG dissolved in water ([…]) was added. 96 hours after addition of the drugs, cell viability was quantified using the Cell Titer-Glo Luminescent Cell Viability Assay (Promega, Madison, Wis.). Luminescence activity was measured with a GloMAx96 Microplate Luminometer (Promega).\nThe protein expression of CTH was examined in 9 ovarian cancer cell lines by western blot analysis. Among all the ovarian cell lines, CTH expression was only observed in OVISE and OVTOKO (FIG. 5E). […] There was a positive correlation between protein expression of CTH and IC50 of CDDP in ovarian cancer cell lines (FIG. 5 F-H). The IC50s of propargylglycine, a specific inhibitor of CTH, were also analyzed in these cell lines. Propargylglycine at a concentration ranging from […] to 10 µg/ml had no effect on cell growth of these cell lines. […]"}, "OVISE cell line": {"test_system": "OVISE cell line", "assay": "Drug and growth-inhibitor assay (Cell Titer-Glo cell viability), OVISE", "conditions": "for effect on cell growth: concentration 0.1 g/ml to […], alone", "description": "as §1\n(§2) The protein expression of CTH was examined in 9 ovarian cancer cell lines by western blot analysis. Among all the ovarian cell lines, CTH expression was only observed in OVISE and OVTOKO (FIG. 5E). […] There was a positive correlation between protein expression of CTH and IC50 of CDDP in ovarian cancer cell lines (FIG. 5 F-H). The IC50s of propargylglycine, a specific inhibitor of CTH, were also analyzed in these cell lines. Propargylglycine at a concentration ranging from […] to 10 µg/ml had no effect on cell growth of these cell lines. Thus, combination of CDDP and propargylglycine (FIG. 5 I-K) was also examined."}, "OVTOKO cell line": {"test_system": "OVTOKO cell line", "assay": "Drug and growth-inhibitor assay (Cell Titer-Glo cell viability), OVTOKO", "conditions": "for effect on cell growth: concentration 0.1 g/ml to […], alone", "description": "as §1, §2"}, "[1]": {"conditions": "[…] propargylglycine in culture medium, versus medium without PPG"}}}
{"smiles": "C#CCC(N)C(=O)O", "note": "(centres unmarked) [Propargylglycine]", "values": [{"measurement": "effect on cell growth", "setting": "OVCAR3 cell line", "value": "no effect"}, {"measurement": "effect on cell growth", "setting": "OVCAR3 cell line; listed as PPG", "value": "did not affect cell growth"}, {"measurement": "effect on cell growth", "setting": "OVISE cell line", "value": "no effect"}, {"measurement": "effect on cell growth", "setting": "OVISE cell line; listed as PPG", "value": "did not affect cell growth"}, {"measurement": "effect on cell growth", "setting": "OVTOKO cell line", "value": "no effect"}, {"measurement": "effect on cell growth", "setting": "OVTOKO cell line; listed as PPG", "value": "did not affect cell growth"}]}
{"smiles": "[NH2][Pt]([NH2])([Cl])[Cl]", "note": "[CDDP, Cysplatin]", "values": [{"measurement": "change of IC50 of CDDP in combination with propargylglycine", "setting": "OVISE cell line; [1]", "value": "significantly decreased"}, {"measurement": "change of IC50 of CDDP in combination with propargylglycine", "setting": "OVTOKO cell line; [1]", "value": "significantly decreased"}]}
